Measured values reported in patent US20220213061A9, “HETEROCYCLIC COMPOUNDS FOR MODULATING NR2F6” (TES Pharma S.r.l., priority 2020, published 2022).
Structures can show the parent of a compound that is named as a salt.

Molecular target: T1, recombinant human NR2F6 protein (Homo sapiens, UniProt P10588)
T1 sequence (P10588 1-404): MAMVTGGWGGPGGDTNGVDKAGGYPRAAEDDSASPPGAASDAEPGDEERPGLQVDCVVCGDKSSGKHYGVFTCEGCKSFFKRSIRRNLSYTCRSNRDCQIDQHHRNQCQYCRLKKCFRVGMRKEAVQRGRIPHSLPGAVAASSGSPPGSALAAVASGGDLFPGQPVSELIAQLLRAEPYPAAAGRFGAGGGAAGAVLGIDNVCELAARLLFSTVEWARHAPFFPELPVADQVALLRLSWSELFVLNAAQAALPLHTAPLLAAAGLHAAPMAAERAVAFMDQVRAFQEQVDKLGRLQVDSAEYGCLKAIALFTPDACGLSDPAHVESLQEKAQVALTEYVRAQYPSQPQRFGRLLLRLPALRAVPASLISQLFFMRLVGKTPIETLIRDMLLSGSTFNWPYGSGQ
Assay: Biochemical NR2F6 binding assay (EnSpire label-free)
Settings: label-free binding to immobilized purified recombinant human NR2F6; ligands 1 nM to 100 uM, 1% DMSO
Description: Purified recombinant human NR2F6 protein was dissolved in immobilization buffer at pH 4.5 and then immobilized in EnSpire-LFB High-Sensitivity User-Activated Plates at the concentration of 50 μg/well plate and left in incubation for 16 h at 4° C. Wells with only immobilization buffer were used as negative control to check the protein coating efficiency. NR2F6 ligands were resuspended in DMSO at the concentration of 10 mM, then dispensed into a plate containing assay buffer at concentrations ranging from 1 nM to 100 uM using an HP-dispenser. DMSO was normalized at the 1% of volume of each well. The final readings were taken over a period of 30 minutes. The label-free responses were measured as shifts in reflected wavelength and are expressed in picometers (pm). Results were analyzed using the EnSpire label-free user interface software, and EC50 and graphs were generated using GraphPad PRISM software. In the tables below, A is <1 μM; B is 1 to 10 μM; C is 10 to 50 μM; and D is >50 μM.

| Structure (SMILES) | EC50 [µM] |
| --- | --- |
| Cc1ccc(O[C@H]2C[C@H](NC(=O)[C@@H]3CNC[C@H]3c3ccccc3)C2)cc1 (racemic) [Compound I-115, (±)-trans-N-[trans-3-(4-Methylphenoxy)cyclobutyl]-4-phenylpyrrolidine-3-carboxamide hydrochloride] | 1 to 10 |
| O=C(NCc1ccncc1)[C@H]1CNC[C@@H]1c1ccccc1 [Compound I-31, (3R,4S)-4-Phenyl-N-(pyridin-4-ylmethyl)pyrrolidine-3-carboxamide dihydrochloride] | 1 to 10 |
| O=C(Nc1csc2cnccc12)[C@H]1CNC[C@@H]1c1ccccc1 [Compound I-32, (3R,4S)-4-Phenyl-N-(thieno[2,3-c]pyridin-3-yl)pyrrolidine-3-carboxamide dihydrochloride] | 1 to 10 |
| O=C(NCc1ccccc1)[C@H]1CNC[C@@H]1c1ccccc1 [Compound I-33, (3R,4S)—N-Benzyl-4-phenylpyrrolidine-3-carboxamide hydrochloride] | 10 to 50 |
| CN1CCC(CNC(=O)[C@H]2CNC[C@@H]2c2ccccc2)CC1 [Compound I-35, (3R,4S)—N-[(1-Methylpiperidin-4-yl)methyl]-4-phenylpyrrolidine-3-carboxamide dihydrochloride] | > 50 |
| O=C(N[C@H]1CC[C@H](O)CC1)[C@H]1CNC[C@@H]1c1ccccc1 [Compound I-36, (3R,4S)—N-[(1,4-trans)-4-Hydroxycyclohexyl]-4-phenylpyrrolidine-3-carboxamide hydrochloride] | > 50 |
| O=C(Nc1cccc(-c2ccccc2)c1)[C@H]1CNC[C@@H]1c1ccccc1 [Compound I-37, (3R,4S)—N-(Biphenyl-3-yl)-4-phenylpyrrolidine-3-carboxamide hydrochloride] | 1 to 10 |
| O=C(Nc1cccc2cnccc12)[C@@H]1CNC[C@H]1c1ccccc1 [Compound I-40, (3S,4R)—N-(Isoquinolin-5-yl)-4-phenylpyrrolidine-3-carboxamide dihydrochloride] | > 50 |
| O=C(Nc1ccc(-c2cccnc2)cc1)[C@@H]1CNC[C@H]1c1ccccc1 [Compound I-41, (3S,4R)-4-Phenyl-N-[4-(pyridin-3-yl)phenyl]pyrrolidine-3-carboxamide dihydrochloride] | 1 to 10 |

Now from value to compound:

| EC50 [µM] | Structure (SMILES) |
| --- | --- |
| > 50 | O=C(Nc1ccc(Nc2cccnc2)cc1)[C@H]1CNC[C@@H]1c1ccccc1 (racemic) [Compound I-107, (±)-trans-4-Phenyl-N-[4-(pyridin-3-ylamino)phenyl]pyrrolidine-3-carboxamide dihydrochloride] |
| 10 to 50 | O=C(N[C@H]1C[C@H](Oc2ccc(F)nc2)C1)[C@@H]1CNC[C@H]1c1ccccc1 (racemic) [Compound I-116, (±)-trans-N-{trans-3-[(6-Fluoropyridin-3-yl)oxy]cyclobutyl}-4-phenylpyrrolidine-3-carboxamide dihydrochloride] |
| 10 to 50 | O=C(Nc1cccc2cnccc12)C1=C(c2ccccc2)CNC1 [Compound I-1, N-(Isoquinolin-5-yl)-4-phenyl-2,5-dihydro-1H-pyrrole-3-carboxamide] |
| < 1 | O=C(Nc1cccc2cnccc12)[C@H]1CNC[C@@H]1c1ccccc1 [Compound I-29, (3R,4S)—N-(Isoquinolin-5-yl)-4-phenylpyrrolidine-3-carboxamide] |
| < 1 | Cc1nccc2c(NC(=O)[C@H]3CNC[C@@H]3c3ccccc3)cccc12 [Compound I-30, (3R,4S)—N-(1-Methylisoquinolin-5-yl)-4-phenylpyrrolidine-3-carboxamide dihydrochloride] |
| 1 to 10 | O=C(Nc1cc2ccccc2cn1)[C@H]1CNC[C@@H]1c1ccccc1 [Compound I-38, (3R,4S)—N-(Isoquinolin-3-yl)-4-phenylpyrrolidine-3-carboxamide dihydrochloride] |
| > 50 | O=C(Nc1ccc(-c2cccnc2)cc1)[C@H]1CNC[C@@H]1c1ccccc1 [Compound I-39, (3R,4S)-4-Phenyl-N-[4-(pyridin-3-yl)phenyl]pyrrolidine-3-carboxamide dihydrochloride] |
